Each structure is given as a SMILES string.

One experiment concerns the target T1, CBP (Homo sapiens, UniProt Q92793).
T1 construct: host or cells: A549 CBP HiBit cells
The experiment in a line: CBP degradation, HiBit technology in A549 CBP HiBit cells (24 h). It counts as cell-based. The settings on record: 24 hrs post treatment. In outline:
(§1)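 Degradation potency and Dmax came from luminescence after 10 min room-temperature lysis with HiBit detection buffer. Beforehand, HiBit-tagged A549 lines received serial compound dilutions (10 mM DMSO stocks) at 37 °C, 5% CO2. CBP cells were read at 24 h, p300 cells at 2 h.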

For the next experiment, the target named is T2, p300 (Homo sapiens, UniProt Q09472).
T2 construct: host or cells: A549 P300 HiBit cells
The experiment in a line: P300 degradation, HiBit technology in A549 P300 HiBit cells (2 h). It counts as cell-based. The settings on record: 2 hrs post treatment; for Dmax: A549, A549 P300 HiBit cells; for DC50: A549 P300 HiBit cells. In outline: as §1

T1 sequence (Q92793 whole entry): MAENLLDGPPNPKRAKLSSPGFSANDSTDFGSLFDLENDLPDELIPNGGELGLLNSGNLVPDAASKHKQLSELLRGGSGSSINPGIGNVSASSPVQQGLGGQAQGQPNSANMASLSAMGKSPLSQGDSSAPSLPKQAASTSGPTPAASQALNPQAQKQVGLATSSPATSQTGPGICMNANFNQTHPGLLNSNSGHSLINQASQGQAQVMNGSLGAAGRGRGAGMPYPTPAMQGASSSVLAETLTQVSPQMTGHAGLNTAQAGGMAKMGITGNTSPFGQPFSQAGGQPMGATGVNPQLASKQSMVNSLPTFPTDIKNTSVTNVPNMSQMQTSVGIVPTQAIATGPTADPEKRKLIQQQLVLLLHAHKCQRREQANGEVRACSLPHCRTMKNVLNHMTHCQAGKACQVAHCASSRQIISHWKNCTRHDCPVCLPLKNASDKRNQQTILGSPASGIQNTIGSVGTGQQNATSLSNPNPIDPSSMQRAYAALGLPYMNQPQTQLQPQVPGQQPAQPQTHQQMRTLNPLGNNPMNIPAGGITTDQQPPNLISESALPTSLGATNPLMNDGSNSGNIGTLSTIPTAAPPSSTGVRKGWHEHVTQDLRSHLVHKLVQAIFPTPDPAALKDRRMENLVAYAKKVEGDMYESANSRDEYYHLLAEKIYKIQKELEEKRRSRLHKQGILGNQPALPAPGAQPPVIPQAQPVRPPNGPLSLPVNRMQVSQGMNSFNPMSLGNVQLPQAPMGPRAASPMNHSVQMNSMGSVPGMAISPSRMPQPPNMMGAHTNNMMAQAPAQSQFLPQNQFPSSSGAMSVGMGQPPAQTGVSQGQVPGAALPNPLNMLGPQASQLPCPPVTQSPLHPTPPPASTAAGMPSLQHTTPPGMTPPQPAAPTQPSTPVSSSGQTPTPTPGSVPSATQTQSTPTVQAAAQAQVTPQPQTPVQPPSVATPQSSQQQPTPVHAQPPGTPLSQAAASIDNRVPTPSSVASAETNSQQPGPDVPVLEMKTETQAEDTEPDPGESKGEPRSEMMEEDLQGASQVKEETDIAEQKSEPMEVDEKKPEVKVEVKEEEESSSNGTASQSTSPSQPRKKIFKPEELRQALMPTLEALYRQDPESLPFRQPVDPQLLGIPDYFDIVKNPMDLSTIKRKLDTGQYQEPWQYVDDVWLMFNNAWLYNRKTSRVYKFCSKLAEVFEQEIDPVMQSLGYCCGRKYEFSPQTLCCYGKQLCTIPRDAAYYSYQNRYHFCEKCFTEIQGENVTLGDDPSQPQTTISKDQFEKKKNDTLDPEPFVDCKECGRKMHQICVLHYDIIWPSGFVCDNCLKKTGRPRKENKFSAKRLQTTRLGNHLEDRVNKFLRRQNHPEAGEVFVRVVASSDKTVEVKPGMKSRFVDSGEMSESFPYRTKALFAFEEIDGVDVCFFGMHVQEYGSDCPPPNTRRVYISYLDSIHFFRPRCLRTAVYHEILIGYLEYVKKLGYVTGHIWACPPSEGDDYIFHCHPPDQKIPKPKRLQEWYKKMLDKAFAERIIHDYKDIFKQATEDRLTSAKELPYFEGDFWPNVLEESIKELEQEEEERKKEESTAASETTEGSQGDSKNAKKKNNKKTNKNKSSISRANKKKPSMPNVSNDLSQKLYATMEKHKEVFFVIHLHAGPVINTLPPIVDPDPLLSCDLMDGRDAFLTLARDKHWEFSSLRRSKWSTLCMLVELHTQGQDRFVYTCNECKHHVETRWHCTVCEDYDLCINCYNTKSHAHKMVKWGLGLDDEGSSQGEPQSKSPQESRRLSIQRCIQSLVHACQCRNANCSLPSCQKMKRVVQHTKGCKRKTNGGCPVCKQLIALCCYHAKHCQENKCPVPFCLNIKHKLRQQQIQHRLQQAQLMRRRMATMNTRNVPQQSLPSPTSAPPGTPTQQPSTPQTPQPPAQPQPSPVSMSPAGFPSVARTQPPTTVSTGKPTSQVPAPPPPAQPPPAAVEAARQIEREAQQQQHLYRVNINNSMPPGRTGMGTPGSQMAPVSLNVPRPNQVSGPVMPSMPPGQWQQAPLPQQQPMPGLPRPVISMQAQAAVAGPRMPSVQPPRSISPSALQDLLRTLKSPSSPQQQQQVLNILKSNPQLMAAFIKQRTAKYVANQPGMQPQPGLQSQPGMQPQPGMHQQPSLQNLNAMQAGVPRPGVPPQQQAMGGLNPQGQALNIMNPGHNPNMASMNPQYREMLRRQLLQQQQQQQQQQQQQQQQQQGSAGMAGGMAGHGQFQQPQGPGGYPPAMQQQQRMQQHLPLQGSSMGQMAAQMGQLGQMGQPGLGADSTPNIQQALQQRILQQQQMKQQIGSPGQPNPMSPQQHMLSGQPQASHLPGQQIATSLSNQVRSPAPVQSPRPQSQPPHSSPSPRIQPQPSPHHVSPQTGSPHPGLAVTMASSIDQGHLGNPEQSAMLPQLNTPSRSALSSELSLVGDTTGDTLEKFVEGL
T2 sequence (Q09472 whole entry): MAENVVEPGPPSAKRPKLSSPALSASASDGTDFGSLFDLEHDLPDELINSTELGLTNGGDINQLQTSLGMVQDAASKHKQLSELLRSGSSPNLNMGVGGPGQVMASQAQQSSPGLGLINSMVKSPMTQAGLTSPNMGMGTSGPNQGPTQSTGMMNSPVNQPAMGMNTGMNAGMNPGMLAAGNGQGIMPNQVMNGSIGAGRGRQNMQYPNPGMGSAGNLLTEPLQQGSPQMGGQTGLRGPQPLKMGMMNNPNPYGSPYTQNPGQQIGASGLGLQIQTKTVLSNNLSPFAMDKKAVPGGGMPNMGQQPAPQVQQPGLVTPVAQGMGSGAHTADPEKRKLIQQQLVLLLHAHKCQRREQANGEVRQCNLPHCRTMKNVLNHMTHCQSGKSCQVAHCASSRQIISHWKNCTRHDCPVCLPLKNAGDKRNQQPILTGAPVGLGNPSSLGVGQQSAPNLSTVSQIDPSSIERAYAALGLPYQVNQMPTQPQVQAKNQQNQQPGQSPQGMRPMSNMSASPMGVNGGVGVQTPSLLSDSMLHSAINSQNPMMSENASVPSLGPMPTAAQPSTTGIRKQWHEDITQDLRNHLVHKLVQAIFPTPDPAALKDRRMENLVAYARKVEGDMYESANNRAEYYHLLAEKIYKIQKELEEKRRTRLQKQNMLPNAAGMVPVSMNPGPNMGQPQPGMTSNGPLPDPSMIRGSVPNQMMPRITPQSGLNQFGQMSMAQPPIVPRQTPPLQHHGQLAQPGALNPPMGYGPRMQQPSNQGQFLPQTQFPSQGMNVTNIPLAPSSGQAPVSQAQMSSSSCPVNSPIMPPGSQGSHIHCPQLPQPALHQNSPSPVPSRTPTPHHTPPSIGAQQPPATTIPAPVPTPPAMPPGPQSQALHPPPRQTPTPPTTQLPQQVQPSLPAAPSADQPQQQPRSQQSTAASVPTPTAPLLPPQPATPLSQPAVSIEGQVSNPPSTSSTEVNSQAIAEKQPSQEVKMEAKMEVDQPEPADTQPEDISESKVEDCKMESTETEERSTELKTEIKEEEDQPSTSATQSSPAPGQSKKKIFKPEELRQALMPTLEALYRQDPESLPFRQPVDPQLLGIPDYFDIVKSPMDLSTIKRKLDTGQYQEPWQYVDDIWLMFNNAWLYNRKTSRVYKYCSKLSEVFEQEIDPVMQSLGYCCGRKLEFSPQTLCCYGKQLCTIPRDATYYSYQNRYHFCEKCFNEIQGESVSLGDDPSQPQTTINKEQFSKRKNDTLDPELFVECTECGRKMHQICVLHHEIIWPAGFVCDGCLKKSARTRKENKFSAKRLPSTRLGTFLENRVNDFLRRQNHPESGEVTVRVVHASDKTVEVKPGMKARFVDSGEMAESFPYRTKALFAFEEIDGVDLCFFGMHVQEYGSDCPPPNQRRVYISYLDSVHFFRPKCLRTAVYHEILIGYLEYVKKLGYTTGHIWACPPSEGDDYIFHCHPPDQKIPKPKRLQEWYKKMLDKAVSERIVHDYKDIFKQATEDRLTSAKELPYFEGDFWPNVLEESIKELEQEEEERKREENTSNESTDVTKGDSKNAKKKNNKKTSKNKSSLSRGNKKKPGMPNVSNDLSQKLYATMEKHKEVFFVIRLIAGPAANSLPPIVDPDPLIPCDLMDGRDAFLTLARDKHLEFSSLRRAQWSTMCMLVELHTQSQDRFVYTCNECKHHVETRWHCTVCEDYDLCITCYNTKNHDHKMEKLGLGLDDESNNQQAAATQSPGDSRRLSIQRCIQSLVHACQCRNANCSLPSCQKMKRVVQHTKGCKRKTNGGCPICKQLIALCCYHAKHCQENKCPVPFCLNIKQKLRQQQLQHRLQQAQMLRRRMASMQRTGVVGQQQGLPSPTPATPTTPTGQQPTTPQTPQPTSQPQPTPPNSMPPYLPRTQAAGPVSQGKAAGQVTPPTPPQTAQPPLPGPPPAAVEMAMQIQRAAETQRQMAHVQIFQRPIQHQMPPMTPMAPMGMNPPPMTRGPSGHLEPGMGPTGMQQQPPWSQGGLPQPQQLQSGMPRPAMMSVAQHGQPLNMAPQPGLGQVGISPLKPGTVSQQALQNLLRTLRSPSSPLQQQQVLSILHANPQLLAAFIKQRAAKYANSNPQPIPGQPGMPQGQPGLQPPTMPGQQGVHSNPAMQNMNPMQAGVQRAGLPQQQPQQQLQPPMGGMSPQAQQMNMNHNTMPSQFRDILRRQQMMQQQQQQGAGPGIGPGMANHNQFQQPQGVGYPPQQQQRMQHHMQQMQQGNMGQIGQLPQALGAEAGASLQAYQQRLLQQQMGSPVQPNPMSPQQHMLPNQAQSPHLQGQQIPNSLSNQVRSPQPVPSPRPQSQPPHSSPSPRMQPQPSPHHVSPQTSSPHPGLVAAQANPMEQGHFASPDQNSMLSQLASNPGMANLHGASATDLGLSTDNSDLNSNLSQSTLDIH

A word on the DC50: it is the concentration at which degradation of the target reaches its halfway point. The low end stands for a more potent degrader, the high end for a less potent degrader. For orientation: Dmax means the greatest extent of degradation seen. `Cc1cc(-c2ncc(N(C)c3cc(C4CCOCC4)cc4c3cc(C)c(=O)n4C)cn2)cnc1C(=O)NCC#Cc1cc2c(C3CCC(=O)NC3=O)cccc2o1` (stereo not drawn) [Example B59, 5-(5-((1,3-dimethyl-2-oxo-7-(tetrahydro-2H-pyran-4-yl)-1,2-dihydroquinolin-5-yl) (methyl)amino)pyrimidin-2-yl)-N-(3-(4-(2,6-dioxopiperidin-3-yl)benzofuran-2-yl)prop-2-yn-1-yl)-3-methylpicolinamide]: at CBP, the DC50 is > 1000 nM and the Dmax is < 20%. Also, on p300, the Dmax is > 80% and the DC50 fell in the range of 1 to 9.9 nM.

Regarding `Cc1cc2c(N3CCOc4cc(-c5ccc(C(=O)NCC#Cc6ccc7occ(C8CCC(=O)NC8=O)c7c6)nc5)ncc43)cc(F)cc2n(C)c1=O` (stereo not drawn) [Example B123, N-(3-(3-(2,6-dioxopiperidin-3-yl)benzofuran-5-yl)prop-2-yn-1-yl)-5-(4-(7-fluoro-1,3-dimethyl-2-oxo-1,2-dihydroquinolin-5-yl)-3,4-dihydro-2H-pyrido[4,3-b][1,4]oxazin-7-yl)picolinamide], the DC50 is > 1000 nM at CBP and 1 to 9.9 nM on p300. The Dmax on CBP was < 20%; on p300, > 80%.

At CBP, `CC(C)c1cc(N2CCN(C)c3cc(-c4ccc(C(=O)NCC#Cc5cccc(NC6CCC(=O)NC6=O)c5)nc4)ncc32)cc2c1n(C)c(=O)n2C` (stereo not drawn) [Example A270, N-(3-(3-((2,6-dioxopiperidin-3-yl)amino)phenyl)prop-2-yn-1-yl)-5-(4-(7-isopropyl-1,3-dimethyl-2-oxo-2,3-dihydro-1H-benzo[d]imidazol-5-yl)-1-methyl-1,2,3,4-tetrahydro-pyrido[3,4-b]pyrazin-7-yl)picolinamide] came in with a DC50 of 1 to 9.9 nM and a Dmax of 60 to 79%. On p300, the Dmax is > 80% and the DC50 was < 1 nM.

Consider `Cn1c(=O)n(C)c2cc(N3CCOc4nc(-c5ccc(C(=O)NCC#Cc6cc7cccc(C8CCC(=O)NC8=O)c7o6)nc5)ncc43)ccc21` (stereo not drawn) [Example A247, 5-(5-(1,3-dimethyl-2-oxo-2,3-dihydro-1H-benzo[d]imidazol-5-yl)-6,7-dihydro-5H-pyrimido[4,5-b][1,4]oxazin-2-yl)-N-(3-(7-(2,6-dioxopiperidin-3-yl)benzofuran-2-yl)prop-2-yn-1-yl) picolinamide], for which, at CBP, the 50% degradation concentration (DC50) is > 1000 nM and the greatest degradation seen (Dmax) is < 20%. In addition, at p300, the Dmax was in the range of 20 to 39% and the DC50 lay within 10 to 99 nM.

As to `Cc1cc2c(N3CCCc4nc(-c5ccc(C(=O)NCC#Cc6cc7c(C8CCC(=O)NC8=O)cccc7o6)nc5)ncc43)cccc2n(C)c1=O` (stereo not drawn) [Example B67, 5-(5-(1,3-dimethyl-2-oxo-1,2-dihydroquinolin-5-yl)-5,6,7,8-tetrahydropyrido[3,2-d]pyrimidin-2-yl)-N-(3-(4-(2,6-dioxopiperidin-3-yl)benzofuran-2-yl)prop-2-yn-1-yl)picolinamide], the DC50 was 100 to 999 nM at CBP and < 1 nM on p300. The values for the Dmax on CBP and on p300 were < 20% and > 80%, respectively.

At CBP, `CC(C)c1cc(-c2cccc3cc(-c4ccc(C(=O)NCC#Cc5ccc6cnn(C7CCC(=O)NC7=O)c6c5Cl)nc4)ncc23)cc2c1n(C)c(=O)n2C` (stereo not drawn) [Example A39, N-(3-(7-Chloro-1-(2,6-dioxopiperidin-3-yl)-1H-indazol-6-yl)prop-2-yn-1-yl)-5-(8-(7-isopropyl-1,3-dimethyl-2-oxo-2,3-dihydro-1H-benzo[d]imidazol-5-yl)isoquinolin-3-yl)picolinamide] yielded a DC50 of 100 to 999 nM and a Dmax of 20 to 39%. In addition, at p300, the Dmax is > 80% and the DC50 was 1 to 9.9 nM.

Turning to `CC(C)c1cc(-c2cccc3cc(-c4ccc(C(=O)NCC#Cc5cc6cccc(C7CCC(=O)NC7=O)c6o5)nc4)ncc23)cc2c1n(C)c(=O)n2C` (stereo not drawn) [Example A216, N-(3-(7-(2,6-dioxo-piperidin-3-yl)benzofuran-2-yl)prop-2-yn-1-yl)-5-(8-(7-isopropyl-1,3-dimethyl-2-oxo-2,3-dihydro-1H-benzo [d]imidazol-5-yl)isoquinolin-3-yl)picolinamide], on CBP, the DC50 was > 1000 nM and the Dmax was < 20%. Further, on p300, the Dmax was > 80% and the DC50 lay within 1 to 9.9 nM.

On CBP, `CCc1cc(-c2cccc3cc(-c4ccc(C(=O)NCC#Cc5ccc6c(c5)n(C5CCC(=O)NC5=O)c(=O)n6C)nc4)ncc23)c2cc(C)c(=O)n(C)c2c1` (stereo not drawn) [Example B8, N-(3-(3-(2,6-Dioxopiperidin-3-yl)-1-methyl-2-oxo-2,3-dihydro-1H-benzo[d]imidazol-5-yl)prop-2-yn-1-yl)-5-(8-(7-ethyl-1,3-dimethyl-2-oxo-1,2-dihydroquinolin-5-yl)isoquinolin-3-yl)picolinamide] yielded a DC50 of 10 to 99 nM and a Dmax of 40 to 59%. Further, on p300, the Dmax was > 80% and the 50% degradation concentration (DC50) lay in the range of 1 to 9.9 nM.

Regarding `Cc1cc2c(N3CCCc4nc(-c5ccc(C(=O)NCC#Cc6cc7c([C@@H]8CCC(=O)NC8=O)cccc7o6)nc5)ncc43)cc(C3CCOCC3)nc2n(C)c1=O` [Example B49, (S)-5-(5-(6,8-dimethyl-7-oxo-2-(tetrahydro-2H-pyran-4-yl)-7,8-dihydro-1,8-naphthyridin-4-yl)-5,6,7,8-tetrahydropyrido[3,2-d]pyrimidin-2-yl)-N-(3-(4-(2,6-dioxopiperidin-3-yl)benzofuran-2-yl)prop-2-yn-1-yl)picolinamide], at CBP, the DC50 was > 1000 nM and the Dmax is < 20%. Also, on p300, the Dmax was > 80% and the DC50 lay in the range of 1 to 9.9 nM.

For `Cc1cc2c(N3CCCc4nc(-c5ccc(C(=O)NCC#Cc6cc7c(C8CCC(=O)NC8=O)cccc7o6)nc5)ncc43)cc(C(C)C)nc2n(C)c1=O` (stereo not drawn) [Example B56, N-(3-(4-(2,6-dioxopiperidin-3-yl)benzofuran-2-yl)prop-2-yn-1-yl)-5-(5-(2-isopropyl-6,8-dimethyl-7-oxo-7,8-dihydro-1,8-naphthyridin-4-yl)-5,6,7,8-tetrahydropyrido[3,2-d]pyrimidin-2-yl)picolinamide], at CBP, the DC50 was > 1000 nM and the Dmax is < 20%. Also, on p300, the Dmax is > 80% and the half-maximal degradation concentration (DC50) fell in the range of 1 to 9.9 nM.

Turning to `Cc1cc(-c2ncc3c(n2)CCCN3c2ccc3c(c2)n(C)c(=O)n3C)cnc1C(=O)NCC#Cc1ccc2occ(C3CCC(=O)NC3=O)c2c1` (stereo not drawn) [Example A79, 5-(5-(1,3-dimethyl-2-oxo-2,3-dihydro-1H-benzo[d]imidazol-5-yl)-5,6,7,8-tetrahydropyrido[3,2-d]pyrimidin-2-yl)-N-(3-(3-(2,6-dioxo-piperidin-3-yl)benzofuran-5-yl)prop-2-yn-1-yl)-3-methylpicolinamide], the DC50 was > 1000 nM on CBP and 1 to 9.9 nM at p300. The Dmax on CBP was < 20%; at p300, > 80%.

On to `Cc1cc(-c2cc3cccc(-c4ccc5c(c4)n(C)c(=O)n5C)c3cn2)cnc1C(=O)NCC#Cc1ccc2occ(C3CCC(=O)NC3=O)c2c1` (stereo not drawn) [Example A155, 5-(8-(1,3-dimethyl-2-oxo-2,3-dihydro-1H-benzo[d]imidazol-5-yl)isoquinolin-3-yl)-N-(3-(3-(2,6-dioxo-piperidin-3-yl)benzofuran-5-yl)prop-2-yn-1-yl)-3-methylpicolinamide], for which, on CBP, the DC50 was > 1000 nM and the Dmax is < 20%. In addition, at p300, the Dmax was > 80% and the DC50 lay in the range of 1 to 9.9 nM.

The values are drawn from patent publication US20250114345A1, “COMPOUNDS AND COMPOSITIONS AS CBP/P300 DEGRADERS AND USES THEREOF” (Oncopia Therapeutics, Inc. d/b/a/ SK Life Science Labs, priority 2023, published 2025).
